Laboratory results taken from patent publication US20030225132A1, “Estrogen receptor modulators” (priority 2002, published 2003).
pEC50: −log10 of the molar value.

Tested on: MCF-7 cells
Test: MCF-7 Estrogen Dependent Proliferation Assay
Assay type: cell-based
Conditions: Homo sapiens, MCF7; added to Estrogen Depleted Media (EDM); read-out: EC50 of stimulation of growth of MCF-7 cells
Source text: MCF-7 Estrogen Dependent Proliferation Assay MCF-7 cells (ATCC #HTB-22) are human mammary gland adenocarcinoma cells that require estrogen for growth. The growth media (GM) for the MCF-7 cells is Minimum Essential Media (without phenol red) supplemented with fetal bovine serum ([…]) to 10%. The PBS serves as the sole source of estrogen and this GM supports the full growth of the cells and is used for the routine growth of the cell cultures. When MCF-7 cells are placed in a media in which 10% Charcoal-Dextran treated fetal bovine serum (CD-FBS) is substituted for PBS, the cells will cease to divide but will remain viable. […] The addition of estradiol to EDM stimulates the growth of the MCF-7 cells in a dose dependent manner with an EC50 of 2 pM. Growing MCF-7 cells are washed several times with EDM and the cultures then maintained in EDM for a minimum of 6 days in order to deplete the cells of endogenous estrogen. […] At this point, the culture supernatants are aspirated, the cells washed 2× with PBS, the wash solution aspirated and the protein content of each well determined. Each drug dilution is evaluated on a minimum of 5 wells and the range of dilution of the test compounds in the assay is 0.001 nM to 1000 nM. […] The assay is terminated at day 8-10 when the appropriate controls reach 80-90% confluency and the protein content of each well is determined as above.

pEC50: 11.70
Structure (SMILES): C[C@]12CC[C@@H]3c4ccc(O)cc4CC[C@H]3[C@@H]1CC[C@@H]2O [estradiol]
